# Key:
# SIRT1 = target: T1, SIRT1 (Homo sapiens, UniProt Q96EB6); assay: Sirtuin deacetylase enzyme activity assay (Cayman Chemical), compound screen; assay type: biochemical; conditions: compound at 50 μM; Z-score of change in fluorescent signal; + increase, − decrease
# T1 construct: purchased Cayman Chemical
# T1 sequence (Q96EB6 1-747): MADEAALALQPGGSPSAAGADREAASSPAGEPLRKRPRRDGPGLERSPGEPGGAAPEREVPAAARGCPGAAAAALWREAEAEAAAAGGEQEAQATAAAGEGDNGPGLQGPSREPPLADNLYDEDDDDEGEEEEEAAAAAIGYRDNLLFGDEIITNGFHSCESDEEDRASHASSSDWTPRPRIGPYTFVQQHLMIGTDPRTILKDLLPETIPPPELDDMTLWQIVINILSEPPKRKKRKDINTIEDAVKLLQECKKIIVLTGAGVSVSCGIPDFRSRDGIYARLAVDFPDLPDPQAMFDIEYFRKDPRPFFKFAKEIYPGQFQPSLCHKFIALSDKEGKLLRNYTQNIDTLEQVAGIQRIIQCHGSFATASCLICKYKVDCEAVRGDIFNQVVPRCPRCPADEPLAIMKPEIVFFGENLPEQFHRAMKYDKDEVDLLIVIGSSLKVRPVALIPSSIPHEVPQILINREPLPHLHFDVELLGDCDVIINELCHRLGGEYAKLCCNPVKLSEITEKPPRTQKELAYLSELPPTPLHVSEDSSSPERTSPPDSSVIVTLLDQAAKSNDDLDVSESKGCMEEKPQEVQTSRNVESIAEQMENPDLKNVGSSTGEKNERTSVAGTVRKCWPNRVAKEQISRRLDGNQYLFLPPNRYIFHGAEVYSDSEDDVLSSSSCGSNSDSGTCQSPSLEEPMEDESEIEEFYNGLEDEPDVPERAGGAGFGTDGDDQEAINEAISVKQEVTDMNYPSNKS
# Source text: (§1) Sirtuins have been identified as innate viral restriction factors and it has been previously shown that drugs that modulate the activity of these enzymes block the production of multiple viruses in culture (see, e.g., WO 2012/106509). Sirtuins are NAD-dependent enzymes that regulate the activity of target proteins by post-translational modifications and thereby control key cellular events (see, e.g., Haigis and Sinclair (2010) Ann Rev Pathol Mech Dis 5:253-95). SIRT1, SIRT2, SIRT3 and SIRT6 have shown a detectable deacetylase activity in well-established biochemical assays that utilize recombinant SIRT1, SIRT2, SIRT3, and SIRT6 enzymes and fluorophore-conjugated acetyl-peptides. As described in the Examples below, the deacetylase activity of these sirtuins were used as a surrogate to identify compounds having broad-range antiviral activity.
# (§2) A publically disclosed, small molecule library consisting of approximately 13,000 compounds was screened using a commercially available (Cayman Chemical) enzyme activity assay. Deacetylase activity of sirtuins SIRT1, SIRT2, SIRT3, and SIRT6 was used as a surrogate to identify compounds with the potential for having broad-range antiviral activity. The compounds were tested at a single concentration (50 μM) in microtiter plates and their activity against the four sirtuins was recorded as a change in fluorescent signal intensity. […] Activation of sirtuin activity generated positive Z-scores and inhibition of sirtuin activity produced negative Z-scores.
# SIRT2 = target: T2, SIRT2 (Homo sapiens, UniProt Q8IXJ6); assay: as above; assay type: biochemical; conditions: compound at 50 μM; Z-score of change in fluorescent signal; + increase, − decrease
# T2 construct: purchased Cayman Chemical
# T2 sequence (Q8IXJ6 1-389): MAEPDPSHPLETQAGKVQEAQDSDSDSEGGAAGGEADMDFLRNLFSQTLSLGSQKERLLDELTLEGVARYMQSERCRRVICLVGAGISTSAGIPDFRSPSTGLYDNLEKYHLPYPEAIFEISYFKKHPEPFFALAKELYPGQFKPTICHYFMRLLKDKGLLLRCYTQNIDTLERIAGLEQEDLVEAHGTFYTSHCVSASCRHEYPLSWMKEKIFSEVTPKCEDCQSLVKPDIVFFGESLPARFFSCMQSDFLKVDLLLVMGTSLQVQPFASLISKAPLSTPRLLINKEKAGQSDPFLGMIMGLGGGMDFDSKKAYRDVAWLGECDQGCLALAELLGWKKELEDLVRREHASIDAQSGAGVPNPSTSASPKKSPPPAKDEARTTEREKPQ
# Source text: as §1, §2
# SIRT3 = target: T3, SIRT3 (Homo sapiens, UniProt Q9NTG7); assay: as above; assay type: biochemical; conditions: compound at 50 μM; Z-score of change in fluorescent signal; + increase, − decrease
# T3 construct: purchased Cayman Chemical
# T3 sequence (Q9NTG7 1-399): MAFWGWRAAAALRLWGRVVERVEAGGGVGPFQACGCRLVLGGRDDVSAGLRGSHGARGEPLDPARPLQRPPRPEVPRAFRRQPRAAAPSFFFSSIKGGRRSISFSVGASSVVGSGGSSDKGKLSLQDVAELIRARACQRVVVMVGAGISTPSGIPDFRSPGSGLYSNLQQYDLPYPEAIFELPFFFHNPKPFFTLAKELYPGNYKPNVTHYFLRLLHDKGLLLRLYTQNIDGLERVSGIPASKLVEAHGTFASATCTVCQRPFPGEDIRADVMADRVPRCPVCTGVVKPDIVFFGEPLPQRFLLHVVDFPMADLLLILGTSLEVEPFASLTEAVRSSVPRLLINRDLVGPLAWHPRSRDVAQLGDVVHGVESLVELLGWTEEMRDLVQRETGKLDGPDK
# Source text: as §1, §2
# SIRT6 = target: T4, SIRT6 (Homo sapiens, UniProt Q8N6T7); assay: as above; assay type: biochemical; conditions: compound at 50 μM; Z-score of change in fluorescent signal; + increase, − decrease
# T4 construct: purchased Cayman Chemical
# T4 sequence (Q8N6T7 whole entry): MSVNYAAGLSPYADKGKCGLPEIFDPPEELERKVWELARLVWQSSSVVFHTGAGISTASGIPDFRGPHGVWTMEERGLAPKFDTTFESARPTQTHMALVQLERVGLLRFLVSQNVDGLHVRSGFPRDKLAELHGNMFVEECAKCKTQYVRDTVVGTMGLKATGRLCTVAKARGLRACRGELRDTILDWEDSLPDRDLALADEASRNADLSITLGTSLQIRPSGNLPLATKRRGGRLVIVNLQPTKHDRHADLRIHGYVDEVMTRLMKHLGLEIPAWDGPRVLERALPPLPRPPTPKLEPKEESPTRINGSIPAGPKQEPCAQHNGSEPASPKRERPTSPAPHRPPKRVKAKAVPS
# Source text: as §1, §2
# [1] = tested on: human cytomegalovirus (HCMV) AD169 strain; assay: Antiviral activity against HCMV in MRC5 fibroblasts (virus yield, fluorescent focus assay); assay type: cell-based; conditions: Human betaherpesvirus 5, HCMV AD169, 1 infectious unit/cell, treated 2 h after infection, virus in medium at 96 h
# [2] = Tetrazolium-based cell viability assay (cytotoxicity); conditions: human
Structure (SMILES),"SIRT1 (change in sirtuin deacetylase activity, Z-score class) (SIRT1)","SIRT2 (change in sirtuin deacetylase activity, Z-score class) (SIRT2)","SIRT3 (change in sirtuin deacetylase activity, Z-score class) (SIRT3)","SIRT6 (change in sirtuin deacetylase activity, Z-score class) (SIRT6)",IC50 [1],IC90 [1],CC50 at 96 h [2]
CC(c1ccc(F)cc1)C(O)Cn1cc(-c2cc(Cl)cnc2N)nn1 (stereo not drawn),+++ (Z-score ≧ 3 = +++),na (−2 ≦ Z-score < 2 = no activity (na)),na (−2 ≦ Z-score < 2 = no activity (na)),++ (2 ≦ Z-score < 3 = ++),15.1 µM,35.6 µM,> 50 µM
Cc1ccccc1C(C)C(CO)NC(=O)c1cn(C)cn1 (stereo not drawn),−−− (Z-score ≦ −3 = −−−),−−− (Z-score ≦ −3 = −−−),na (−2 ≦ Z-score < 2 = no activity (na)),−− (−3 < Z-score ≦ −2 = −−),15.8 µM,41.9 µM,> 50 µM
CC(CCNc1cccnc1)c1c[nH]c2ccccc12 (stereo not drawn),na (−2 ≦ Z-score < 2 = no activity (na)),+++ (Z-score ≧ 3 = +++),na (−2 ≦ Z-score < 2 = no activity (na)),na (−2 ≦ Z-score < 2 = no activity (na)),15.8 µM,43.1 µM,> 50 µM
COc1ccc2[nH]cc(C(C)CCNc3cccnc3)c2c1 (stereo not drawn),na (−2 ≦ Z-score < 2 = no activity (na)),+++ (Z-score ≧ 3 = +++),na (−2 ≦ Z-score < 2 = no activity (na)),na (−2 ≦ Z-score < 2 = no activity (na)),17.4 µM,46.5 µM,> 50 µM
CCN1CC(C(C)c2ccc(C)nc2)Oc2ccc(C(F)(F)F)cc2C1=O (stereo not drawn),na (−2 ≦ Z-score < 2 = no activity (na)),+++ (Z-score ≧ 3 = +++),na (−2 ≦ Z-score < 2 = no activity (na)),na (−2 ≦ Z-score < 2 = no activity (na)),18.4 µM,42.3 µM,> 50 µM
CC(c1ccccc1F)C(O)CNc1ccc(O)nc1 (stereo not drawn),na (−2 ≦ Z-score < 2 = no activity (na)),na (−2 ≦ Z-score < 2 = no activity (na)),+++ (Z-score ≧ 3 = +++),+++ (Z-score ≧ 3 = +++),19.4 µM,44 µM,> 50 µM
CC(c1ccnn1C)C(CN1CCN(C)CC1)Oc1ccc(C#N)cn1 (stereo not drawn),−− (−3 < Z-score ≦ −2 = −−),na (−2 ≦ Z-score < 2 = no activity (na)),na (−2 ≦ Z-score < 2 = no activity (na)),+++ (Z-score ≧ 3 = +++),21.1 µM,42.4 µM,> 50 µM
COc1ccccc1C1C(=O)N(C(C)C)CC1O (stereo not drawn),na (−2 ≦ Z-score < 2 = no activity (na)),+++ (Z-score ≧ 3 = +++),na (−2 ≦ Z-score < 2 = no activity (na)),na (−2 ≦ Z-score < 2 = no activity (na)),23.9 µM,47.2 µM,> 50 µM
CC(C)c1cc(N)n(C(C(=O)O)C(C)c2ccccc2Cl)n1 (stereo not drawn),−− (−3 < Z-score ≦ −2 = −−),−− (−3 < Z-score ≦ −2 = −−),na (−2 ≦ Z-score < 2 = no activity (na)),na (−2 ≦ Z-score < 2 = no activity (na)),25.5 µM,57.9 µM,> 50 µM
COc1cccc(C(C)C(O)Cn2cc(-c3cc(Cl)cnc3N)nn2)c1 (stereo not drawn),+++ (Z-score ≧ 3 = +++),na (−2 ≦ Z-score < 2 = no activity (na)),na (−2 ≦ Z-score < 2 = no activity (na)),+++ (Z-score ≧ 3 = +++),26.2 µM,44.3 µM,> 50 µM
COc1ccc(C(C)C(CN2CCc3ccccc3C2)n2nc(-c3cccnc3)cc2N)cc1 (stereo not drawn),−−− (Z-score ≦ −3 = −−−),−− (−3 < Z-score ≦ −2 = −−),na (−2 ≦ Z-score < 2 = no activity (na)),na (−2 ≦ Z-score < 2 = no activity (na)),27.7 µM,55.7 µM,> 50 µM
CC(c1ccncc1)c1cnc(N2CCc3ccccc3C2)s1 (stereo not drawn),na (−2 ≦ Z-score < 2 = no activity (na)),−−− (Z-score ≦ −3 = −−−),na (−2 ≦ Z-score < 2 = no activity (na)),na (−2 ≦ Z-score < 2 = no activity (na)),28.3 µM,41.9 µM,> 50 µM
